From ChEMBL document CHEMBL5584231, “Rational design of a new short anticancer peptide with good potential for cancer treatment” (Eur J Med Chem, 2024)
Active and inactive are the calls of the source. The calls are words filed in the database; no cut-off is given here. Non-standard residues stand in square brackets, D forms with d. Residues, ends and D or L forms follow the SMILES beside them. Aad = N[C@@H](CCCC(=O)O)C(=O)O

Columns and labels:
[1] = system: Cell membrane; assay: Induction of morphological changes in cell membrane of human MCF7 cells assessed as cell depression at 1 times IC50 incubated for 1 hr by SEM analysis; assay type: cell membranes
[2] = Stability in mouse serum assessed as compound remaining at 10 mM incubated for 12 hrs by RP-HPLC analysis; assay type: ADME, cell-free; details: read-out: Stability
[3] = system: 4T1; assay: Antitumor activity against mouse 4T1 cells implanted in female Balb/c mouse assessed as reduction in tumor growth at 12 micromol/kg, ip administered every other day for 2 weeks and measured every 2 days; assay type: functional, organism-based; details: dose 12.0 µmol/kg
[4] = system: MCF7; assay: Induction of apoptosis in human MCF7 cells assessed as increase in intracellular ROS generation at 1 times IC50 measured after 0 to 360 mins by DCFH-DA staining based analysis; assay type: functional, cell-based; details: time 0-360 min
[5] = Acute toxicity in female Balb/c mouse assessed as heart damage at approximately LD50 administered as single ip dose by H and E staining based analysis; assay type: organism-based; details: in vivo
[6] = Toxicity in female Balb/c mouse implanted with mouse 4T1 cells assessed as pathological changes in spleen at 12 micromol/kg, ip administered every other day for 2 weeks by H and E staining based analysis; assay type: organism-based; details: in vivo, 336 h, dose 12 µmol/kg
[7] = system: Cell membrane; assay: Induction of morphological changes in cell membrane of human MCF7 cells assessed as membrane damage at 1 times IC50 incubated for 1 hr by SEM analysis; assay type: cell membranes
[8] = system: MCF7; assay: Induction of cell cycle arrest at G0/G1 phase in human MCF7 cells at 1 times IC50 measured after 24 hrs by PI/RNase staining based flow cytometry analysis; assay type: functional
[9] = system: MCF7; assay: Effect on cell cycle progression in human MCF7 cells at 1 times IC50 measured after 1 hr by PI/RNase staining based flow cytometry analysis; assay type: functional
[10] = system: MCF7; assay: Antimigratory activity in human MCF7 cells assessed as reduction in cell migration at 1 times IC50 measured after 24 hrs by scratch-wound healing assay; assay type: functional, cell-based
[11] = Toxicity in female Balb/c mouse implanted with mouse 4T1 cells assessed as pathological changes in kidney at 12 micromol/kg, ip administered every other day for 2 weeks by H and E staining based analysis; assay type: organism-based; details: in vivo, 336 h, dose 12 µmol/kg
[12] = system: Cell membrane; assay: Induction of morphological changes in cell membrane of human MCF7 cells assessed as severe membrane rupture at 1 times IC50 incubated for 1 hr by SEM analysis; assay type: cell membranes
[13] = system: MCF7; assay: Cytotoxicity against human MCF7 cells assessed as inhibition of cell growth incubated for 1 hr by MTT assay; assay type: functional, cell-based; details: MCF7, 1 h
[14] = Toxicity in female Balb/c mouse implanted with mouse 4T1 cells assessed as pathological changes in liver at 12 micromol/kg, ip administered every other day for 2 weeks by H and E staining based analysis; assay type: organism-based; details: in vivo, 336 h, dose 12 µmol/kg
[15] = Toxicity in female Balb/c mouse implanted with mouse 4T1 cells assessed as pathological changes in lung at 12 micromol/kg, ip administered every other day for 2 weeks by H and E staining based analysis; assay type: organism-based; details: in vivo, 336 h, dose 12 µmol/kg
[16] = Acute toxicity in female Balb/c mouse assessed as lung damage at approximately LD50 administered as single ip dose by H and E staining based analysis; assay type: organism-based; details: in vivo
[17] = system: Cell membrane; assay: Disruption of cell membrane integrity in human MCF7 cells assessed as increase in PI fluorescence at 1 times IC50 by laser confocal scanning microscopic analysis; details: time 0-120 min, TDE = time-dependent effect
[18] = Therapeutic index, ratio of HC10 for mouse RBC to IC50 for cytotoxicity against RG cells (unknown origin); assay type: toxicity, cell-based; details: mouse RBC and RG cells, read-out: TI
[19] = Drug uptake in human MCF7 cells at 5 uM incubated for 1 hr by laser confocal scanning microscopic analysis; assay type: ADME, cell-based; details: mcf7, 1 h
[20] = system: A549; assay: Cytotoxicity against human A549 cells assessed as inhibition of cell growth incubated for 1 hr by MTT assay; assay type: functional, cell-based; details: A549, 1 h
[21] = system: HeLa; assay: Cytotoxicity against human HeLa cells assessed as inhibition of cell growth incubated for 1 hr by MTT assay; assay type: functional, cell-based
[22] = Acute toxicity in female Balb/c mouse assessed as cellular swelling in spleen at approximately LD50 administered as single ip dose by H and E staining based analysis; assay type: organism-based; details: in vivo
[23] = system: MCF7; assay: Induction of apoptosis in human MCF7 cells assessed as dead cells at 1 times IC50 measured after 24 hrs by Annexin V-FITC staining based flow cytometry analysis (reference value: 6.41%); assay type: functional
[24] = Cytotoxicity against RG cells (unknown origin) assessed as inhibition of cell growth incubated for 1 hr by MTT assay; assay type: functional, cell-based
[25] = system: 4T1; assay: Antitumor activity against mouse 4T1 cells implanted in female Balb/c mouse assessed as increase in tumor cell apoptosis at 12 micromol/kg, ip administered every other day for 2 weeks by H and E staining based analysis; assay type: functional, organism-based; details: dose 12.0 µmol/kg
[26] = system: MCF7; assay: Cytotoxicity against human MCF7 cells assessed as cell viability at 2 times IC50 measured for 30 mins by MTT assay relative to control; assay type: functional; details: 0.5 h
[27] = system: Cell membrane; assay: Induction of cell membrane damage in human MCF7 cells assessed as protein leakage at 1 to 2 times IC50 measured after 0.5 to 6 hrs by UV based analysis; assay type: cell membranes; details: time 0.5-6 hrs
[28] = Therapeutic index, ratio of HC10 for mouse RBC to IC50 for cytotoxicity against human A549 cells; assay type: toxicity, cell-based; details: mouse RBC and A549 cells, read-out: TI
[29] = system: 4T1; assay: Antitumor activity against mouse 4T1 cells implanted in female Balb/c mouse assessed as reduction in tumor weight at 12 micromol/kg, ip administered every other day for 2 weeks and measured every 2 days relative to control; assay type: functional; set-up: scale not given: the % may be the effect or the level left; details: dose 12 µmol/kg
[30] = system: MCF7; assay: Induction of apoptosis in human MCF7 cells assessed as live cells at 1 times IC50 measured after 24 hrs by Annexin V-FITC staining based flow cytometry analysis (reference value: 92%); assay type: functional
[31] = Stability in mouse serum assessed as half life at 10 mM incubated for 12 hrs by RP-HPLC analysis; assay type: ADME, cell-free
[32] = system: MCF7; assay: Anti-invasion activity in human MCF7 cells assessed as reduction in number of passing cells on polycarbonate membrane at 1 times IC50 measured after 24 hrs by crystal violet staining based transwell assay; assay type: functional, cell-based
[33] = system: Cell membrane; assay: Disruption of cell membrane in human MCF7 cells assessed as LDH release at 40 uM incubated for 1 hr by fluorescence based microplate reader analysis relative to control; assay type: cell membranes
[34] = system: Cell membrane; assay: Induction of cell membrane damage in human MCF7 cells assessed as nucleic acid leakage at 1 to 2 times IC50 measured after 0.5 to 6 hrs by UV based analysis; assay type: cell membranes; details: time 0.5-6 hrs
[35] = Acute toxicity in female Balb/c mouse assessed as cellular swelling in liver at approximately LD50 administered as single ip dose by H and E staining based analysis; assay type: organism-based; details: in vivo
[36] = Acute toxicity in ip dosed female Balb/c mouse administered as single dose and measured for 7 days by karber method; assay type: organism-based; details: in vivo, time 7 day
[37] = Toxicity in female Balb/c mouse implanted with mouse 4T1 cells assessed as pathological changes in heart at 12 micromol/kg, ip administered every other day for 2 weeks by H and E staining based analysis; assay type: organism-based; details: in vivo, 336 h, dose 12 µmol/kg
[38] = system: MCF7; assay: Induction of apoptosis in human MCF7 cells assessed as early apoptotic cells at 1 times IC50 measured after 24 hrs by Annexin V-FITC staining based flow cytometry analysis (reference value: 0.014%); assay type: functional

Compound	Activity [1]	remaining at 12 h, 10000 µM [2] [%]	Activity [3]	Activity [4]	Activity [5]	Activity [6]	Activity [7]	Activity [8]	Activity [9]	Activity [10]	Activity [11]	Activity [12]	IC50 [13] [µM]	Activity [14]	Activity [15]	Activity [16]	Activity [17]	selectivity ratio [18]	Drug uptake [19]	IC50 [20] [µM]	other results
CC(C)C[C@H](NC(=O)[C@H](CC(C)C)NC(=O)[C@H](CCCCN)NC(=O)[C@H](CCCCN)NC(=O)[C@H](CC(C)C)NC(=O)[C@H](CC(C)C)NC(=O)[C@H](CCCCN)NC(=O)[C@H](CCCCN)NC(=O)[C@H](CC(C)C)NC(=O)[C@H](CC(C)C)NC(=O)[C@H](CCCCN)NC(=O)[C@H](CCCCN)NC(=O)[C@H](CC(C)C)NC(=O)[C@@H](N)CC(C)C)C(N)=O (H-LLKKLLKKLLKKLL-NH2)	Active	45.6	Active	Active	Non-Toxic	Non-Toxic	Active	Active	inactive	Active	Non-Toxic	Active	4.76	Non-Toxic	Non-Toxic	Non-Toxic	Tde	1.69	Active	3.65	IC50 [21]: 5.91 µM; Activity [22]: Toxic; Activity [23]: 3.79%; IC50 [24]: 6.41 µM; Activity [25]: Active; Activity [26]: ~30%; Activity [27]: Active; selectivity ratio [28]: 2.96; Activity [29]: 28.4%; Activity [30]: 58.1%; half-life at 10000 µM [31]: 665 min; Activity [32]: Active; Activity [33]: 82%; Activity [34]: Active; Activity [35]: Toxic; LD50 at 168 h [36]: 50.2 mg/kg; Activity [37]: Non-Toxic; Activity [38]: 18.9%
CC(C)C[C@H](NC(=O)[C@H](CCCCN)NC(=O)[C@H](CCCCN)NC(=O)[C@H](CC(C)C)NC(=O)[C@H](CC(C)C)NC(=O)[C@H](CCCCN)NC(=O)[C@H](CCCCN)NC(=O)[C@H](CC(C)C)NC(=O)[C@H](CC(C)C)NC(=O)[C@H](CCCCN)NC(=O)[C@H](CCCCN)NC(=O)[C@H](CC(C)C)NC(=O)[C@@H](N)CC(C)C)C(=O)N[C@@H](CCC(=O)O)C(N)=O (H-LLKKLLKKLLKKLE-NH2)	Active	28.6	Active	Active	Non-Toxic	Non-Toxic	Active	Active	inactive	Active	Non-Toxic	Active	21.4	Non-Toxic	Non-Toxic	Non-Toxic	Tde	14.2	Active	14.4	IC50 [21]: 9.46 µM; Activity [22]: Toxic; Activity [23]: 5.69%; IC50 [24]: 21.3 µM; Activity [25]: Active; Activity [26]: ~30%; Activity [27]: Active; selectivity ratio [28]: 21.1; Activity [29]: 33.4%; Activity [30]: 57.2%; half-life at 10000 µM [31]: 467 min; Activity [32]: Active; Activity [33]: 74.1%; Activity [34]: Active; Activity [35]: Toxic; LD50 at 168 h [36]: 79.9 mg/kg; Activity [37]: Non-Toxic; Activity [38]: 18%
CC(C)C[C@H](NC(=O)[C@H](CCCCN)NC(=O)[C@H](CCCCN)NC(=O)[C@H](CC(C)C)NC(=O)[C@H](CC(C)C)NC(=O)[C@H](CCCCN)NC(=O)[C@H](CCCCN)NC(=O)[C@H](CC(C)C)NC(=O)[C@H](CC(C)C)NC(=O)[C@H](CCCCN)NC(=O)[C@H](CCCCN)NC(=O)[C@H](CC(C)C)NC(=O)[C@@H](N)CC(C)C)C(=O)N[C@@H](CCCC(=O)O)C(N)=O (H-LLKKLLKKLLKKL[Aad]-NH2)	Active	31.6	Active	Active	Non-Toxic	Non-Toxic	Active	Active	inactive	Active	Non-Toxic	Active	15.7	Non-Toxic	Non-Toxic	Non-Toxic	Tde	12.7	Active	10.3	IC50 [21]: 7.15 µM; Activity [22]: Toxic; Activity [23]: 4.4%; IC50 [24]: 20.1 µM; Activity [25]: Active; Activity [26]: ~30%; Activity [27]: Active; selectivity ratio [28]: 24.9; Activity [29]: 52.4%; Activity [30]: 55.9%; half-life at 10000 µM [31]: 456 min; Activity [32]: Active; Activity [33]: 82.3%; Activity [34]: Active; Activity [35]: Toxic; LD50 at 168 h [36]: 84 mg/kg; Activity [37]: Non-Toxic; Activity [38]: 25.9%
